Results on five compounds are retold here after PMC7468908 (Nutrients, 2020).

One data set deals with T1, OATP1A2 (Homo sapiens, UniProt P46721).
T1 construct: host or cells: A431
T1 sequence (P46721 1-670): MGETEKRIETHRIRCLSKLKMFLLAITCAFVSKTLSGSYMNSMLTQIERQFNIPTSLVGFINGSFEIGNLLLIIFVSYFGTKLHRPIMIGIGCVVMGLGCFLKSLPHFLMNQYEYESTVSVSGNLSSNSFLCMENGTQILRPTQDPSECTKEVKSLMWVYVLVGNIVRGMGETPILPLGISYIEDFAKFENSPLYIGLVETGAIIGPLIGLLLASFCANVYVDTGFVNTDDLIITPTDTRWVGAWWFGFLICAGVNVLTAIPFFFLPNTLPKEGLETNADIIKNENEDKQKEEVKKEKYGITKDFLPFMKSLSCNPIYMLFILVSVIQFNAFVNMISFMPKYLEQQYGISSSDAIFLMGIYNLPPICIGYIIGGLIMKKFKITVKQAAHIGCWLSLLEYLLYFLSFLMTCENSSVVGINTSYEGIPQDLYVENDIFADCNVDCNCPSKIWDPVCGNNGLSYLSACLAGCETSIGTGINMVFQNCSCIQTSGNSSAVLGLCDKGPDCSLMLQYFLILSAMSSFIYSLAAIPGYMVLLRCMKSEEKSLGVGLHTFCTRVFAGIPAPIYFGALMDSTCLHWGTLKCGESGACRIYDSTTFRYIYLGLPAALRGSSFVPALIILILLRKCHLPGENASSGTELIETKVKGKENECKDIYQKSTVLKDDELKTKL
Description: OATP1A2-mediated sulforhodamine 101 uptake in A431 cells overexpressing OATP1A2. It is filed as cell-based. Conditions: for IC50: A431-OATP1A2 cells. As to the method:
A431 cells overexpressing human OATPs, 1A2 (BC042452, HsCD00333163), 1B1 (Gene ID: AB026257), 1B3 (BC141525, HsCD00348132) or 2B1 (BC041095.1, HsCD00378878), or their mock transfected controls, were generated as previously described. Cells were cultured in Dulbecco’s Modified Eagle Medium (DMEM; Thermo Fischer Scientific, Waltham, MA, USA) supplemented with 10% fetal bovine serum, 2 mM L-glutamine, 100 units/mL penicillin and 100 µg/mL streptomycin, at 37 °C with 5% CO2.
The interaction between flavonoids and OATPs was investigated in an indirect assay employing the fluorescent dye substrates, pyranine and sulforhodamine 101 [51, 52]. Briefly, A431 cell overexpressing OATPs, 1A2, 1B1, 1B3 or 2B1, or their mock transfected controls, were seeded on 96-well plates in a density of 8x10^4 cells/well in 200 μL DMEM one day prior to the transport measurements. […] The reaction was started by the addition of 50 μL uptake buffer containing pyranine in a final concentration of 10 μM (OATP1B1) or 20 μM (OATP1B3 and OATP2B1), or 0.5 μM sulforhodamine 101 (OATP1A2). Thereafter, cells were incubated at 37°C for 15 min (OATP1B1 and OATP2B1), 10 min (OATP1A2), or 30 min (OATP1B3). The reactions were stopped by removing the supernatants, then the cells were washed three times with ice-cold PBS. Fluorescence (in 200 μL PBS/well) was determined employing an Enspire plate reader (Perkin Elmer, Waltham, MA) ex/em: 403/517 nm (pyranine) or 586/605 nm (sulforhodamine 101). OATP-dependent transport was calculated by extracting fluorescence measured in mock transfected cells. Transport activity was calculated based on the fluorescence signal in the absence (100%) of flavonoids. Experiments were repeated at least in three biological replicates. IC50 values were calculated by Hill1 fit, using the Origin Pro8.6 software ([…]).

For data set [1] the following is noted: some human subjects, 500 mg single dose of Q in certain oral carrier systems; cited from earlier work.
Setting [2] is: 0.5 μM sulforhodamine 101, 10 min.
The mark [3] stands for this setting: 0.5 μM sulforhodamine 101, 10 min, read-out: IC50 for OATP1A2.

“And” between values parts separate entries of the source, which are not always exact repeats. Equal values may be shown once. Read-outs that look alike come from different tables or passages of the source.

Take `COc1cc(-c2oc3cc(O)cc(O)c3c(=O)c2OC2OC(C(=O)O)C(O)C(O)C2O)ccc1O` (centres unmarked) [I3G, isorhamnetin-3-glucuronide]: the “concentration causing statistically significant (p < 0.01) inhibition, OATP1A2” value on OATP1A2 (setting [2]) worked out at 12.5 µM. The IC50 on OATP1A2 (setting [3]) is above 30 µM.

Consider `COc1cc(-c2oc3cc(O)cc(O)c3c(=O)c2O)ccc1O` [IR, isorhamnetin], for which the “concentration causing statistically significant (p < 0.01) inhibition, OATP1A2” value at OATP1A2 (setting [2]) was 3.1 µM. Moreover, the IC50 at OATP1A2 (IC50 for OATP1A2, 0.5 μM sulforhodamine 101, 10 min) is above 30 µM.

With `O=C(O)C1OC(Oc2c(-c3ccc(O)c(O)c3)oc3cc(O)cc(O)c3c2=O)C(O)C(O)C1O` (centres unmarked) [Q3G, quercetin-3-glucuronide], at OATP1A2 (setting [2]), the “concentration causing statistically significant (p < 0.01) inhibition, OATP1A2” value is 25 µM. In addition, the IC50 at OATP1A2 (setting [3]) was above 30 µM.

Turning to `O=c1c(O)c(-c2ccc(O)c(OS(=O)(=O)O)c2)oc2cc(O)cc(O)c12` [Q3′S, quercetin-3′-sulfate], the “concentration causing statistically significant (p < 0.01) inhibition, OATP1A2” value on OATP1A2 (setting [2]) was 0.8 µM. Moreover, the IC50 at OATP1A2 (setting [3]) was 4.9 µM and 4.92 µM.

`O=c1c(O)c(-c2ccc(O)c(O)c2)oc2cc(O)cc(O)c12` [Q, quercetin]: the “concentration causing statistically significant (p < 0.01) inhibition, OATP1A2” value on OATP1A2 (setting [2]) was 3.1 µM. The IC50 at OATP1A2 (setting [3]) came to 10.1 µM. Besides, the “peak plasma concentrations of total Q” value in data set [1] was 5 to 10 µM.
